Measured values reported in patent US20130245081A1, “Compositions and Methods for Treating Amyotrophic Lateral Sclerosis” (priority 2009, published 2013).
Where “and” joins values, the source holds several entries; their conditions need not be identical. Identical values can stand only once. Marks after values point to notes of the source that are not given here.

How the values were obtained:
patients with ALS = test: Part 2: 4-week single-blind placebo washout period (withdrawal effects)
[1] = 50 mg during Part 1, placebo washout period
[2] = 150 mg during Part 1, placebo washout period

CCCN[C@@H]1CCc2nc(N)sc2C1 [dexpramipexole, (6R)-2-amino-4,5,6,7-tetrahydro-6-(propylamino)benzothiazole]
functional affinity difference between pramipexole and dexpramipexole (dopamine receptor): 10,000-20,000 fold
Neutrophil Count, Mean (SD) (patients with ALS; 50 mg during Part 1, Baseline (Part 1: Week 12)): 4.539 (1.3112) ×10^3/μL
Neutrophil Count, Mean (SD) (patients with ALS; 50 mg during Part 1, Part 2: Week 4 (end of placebo washout)): 4.470 (1.3436) ×10^3/μL
ALS-related TEAE: Disease progression (patients with ALS; [1]): 1 (5%) N (%)
ALS-related TEAE: Dyspnoea (patients with ALS; [1]): 1 (5%) N (%)
ALS-related TEAE: Fall (patients with ALS; [1]): 2 (9%) N (%)
ALS-related TEAE: General Disorders and Administration Site Conditions (patients with ALS; [1]): 2 (9%) N (%)
ALS-related TEAE: Injury, Poisoning and Procedural Complications (patients with ALS; [1]): 2 (9%) N (%)
ALS-related TEAE: Muscle spasms (patients with ALS; [1]): 1 (5%) N (%)
ALS-related TEAE: Muscular weakness (patients with ALS; [1]): 4 (18%) N (%)
ALS-related TEAE: Musculoskeletal and Connective Tissue Disorders (patients with ALS; [1]): 4 (18%) N (%)
ALS-related TEAE: Respiratory, Thoracic and Mediastinal Disorders (patients with ALS; [1]): 1 (5%) N (%)
Neutrophil Count, Mean Δ (SD) from baseline to Week 4 (patients with ALS; [1]): −0.022 (0.7157) ×10^3/μL
Number of TEAEs (patients with ALS; [1]): 18
Number of serious TEAEs (patients with ALS; [1]): 2
Number of severe TEAEs (patients with ALS; [1]): 2
Number of treatment-related TEAEs (patients with ALS; [1]): 2
Subjects with a TEAE with action taken of study drug discontinued (patients with ALS; [1]): 0 N (%)
Subjects with ≧1 ALS-related TEAE (patients with ALS; [1]): 7 (32%) N (%)
TEAE: Anxiety (patients with ALS; [1]): 1 (5%) N (%)
TEAE: Back pain (patients with ALS; [1]): 2 (9%) N (%)
TEAE: Constipation (patients with ALS; [1]): 0 N (%)
TEAE: Cough (patients with ALS; [1]): 0 N (%)
TEAE: Diarrhoea (patients with ALS; [1]): 0 N (%)
TEAE: Dyspnoea (patients with ALS; [1]): 1 (5%) N (%)
TEAE: Fall (patients with ALS; [1]): 2 (9%) N (%)
TEAE: Gastrointestinal Disorders (patients with ALS; [1]): 0 N (%)
TEAE: General Disorders and Administration Site Conditions (patients with ALS; [1]): 2 (9%) N (%)
TEAE: Injury, Poisoning and Procedural Complications (patients with ALS; [1]): 2 (9%) N (%)
TEAE: Muscle spasms (patients with ALS; [1]): 1 (5%) N (%)
TEAE: Muscular weakness (patients with ALS; [1]): 4 (18%) N (%)
TEAE: Musculoskeletal and Connective Tissue Disorders (patients with ALS; [1]): 6 (27%) N (%)
TEAE: Nausea (patients with ALS; [1]): 0 N (%)
TEAE: Post lumbar puncture syndrome (patients with ALS; [1]): 0 N (%)
TEAE: Psychiatric Disorders (patients with ALS; [1]): 1 (5%) N (%)
TEAE: Pyrexia (patients with ALS; [1]): 1 (5%) N (%)
TEAE: Respiratory, Thoracic and Mediastinal Disorders (patients with ALS; [1]): 1 (5%) N (%)
mean change from baseline in ALSFRS-R score over 4 weeks (patients with ALS; [1]): −0.7
mean change from baseline in VC over 4 weeks (patients with ALS; [1]): −2.9%
serious TEAE: Disease progression (patients with ALS; [1]): 1 (5%)^a N (%)
serious TEAE: Dyspnoea (patients with ALS; [1]): 1 (5%)^a N (%)
serious TEAE: General Disorders and Administration Site Conditions (patients with ALS; [1]): 1 (5%) N (%)
serious TEAE: Renal and Urinary Disorders (patients with ALS; [1]): 0 N (%)
serious TEAE: Respiratory, Thoracic and Mediastinal Disorders (patients with ALS; [1]): 1 (5%) N (%)
serious TEAE: Urethral obstruction (patients with ALS; [1]): 0 N (%)
serious TEAE: Urinary retention (patients with ALS; [1]): 0 N (%)
≧1 TEAE (patients with ALS; [1]): 9 (41%) N (%)
≧1 TEAE with an outcome of death (patients with ALS; [1]): 2 N (%) and 2 (9%) N (%)
≧1 serious TEAE (including death) (patients with ALS; [1]): 2 (9%) N (%)
≧1 serious treatment-related TEAE (patients with ALS; [1]): 0 N (%)
≧1 severe TEAE (patients with ALS; [1]): 2 (9%) N (%)
≧1 treatment-related TEAE (patients with ALS; [1]): 2 (9%) N (%)
Neutrophil Count, Mean (SD) (patients with ALS; 150 mg during Part 1, Baseline (Part 1: Week 12)): 3.931 (1.4130) ×10^3/μL
Neutrophil Count, Mean (SD) (patients with ALS; 150 mg during Part 1, Part 2: Week 4 (end of placebo washout)): 4.753 (1.5327) ×10^3/μL
ALS-related TEAE: Disease progression (patients with ALS; [2]): 0 N (%)
ALS-related TEAE: Dyspnoea (patients with ALS; [2]): 0 N (%)
ALS-related TEAE: Fall (patients with ALS; [2]): 3 (12%) N (%)
ALS-related TEAE: General Disorders and Administration Site Conditions (patients with ALS; [2]): 0 N (%)
ALS-related TEAE: Injury, Poisoning and Procedural Complications (patients with ALS; [2]): 3 (12%) N (%)
ALS-related TEAE: Muscle spasms (patients with ALS; [2]): 1 (4%) N (%)
ALS-related TEAE: Muscular weakness (patients with ALS; [2]): 1 (4%) N (%)
ALS-related TEAE: Musculoskeletal and Connective Tissue Disorders (patients with ALS; [2]): 2 (8%) N (%)
ALS-related TEAE: Respiratory, Thoracic and Mediastinal Disorders (patients with ALS; [2]): 1 (4%) N (%)
Neutrophil Count, Mean Δ (SD) from baseline to Week 4 (patients with ALS; [2]): 0.841 (1.1854) ×10^3/μL
Number of TEAEs (patients with ALS; [2]): 29
Number of serious TEAEs (patients with ALS; [2]): 0
Number of severe TEAEs (patients with ALS; [2]): 0
Number of treatment-related TEAEs (patients with ALS; [2]): 5
Subjects with a TEAE with action taken of study drug discontinued (patients with ALS; [2]): 0 N (%)
Subjects with ≧1 ALS-related TEAE (patients with ALS; [2]): 7 (28%) N (%)
TEAE: Anxiety (patients with ALS; [2]): 0 N (%)
TEAE: Back pain (patients with ALS; [2]): 0 N (%)
TEAE: Constipation (patients with ALS; [2]): 1 (4%) N (%)
TEAE: Cough (patients with ALS; [2]): 2 (8%) N (%)
TEAE: Diarrhoea (patients with ALS; [2]): 2 (8%) N (%)
TEAE: Dyspnoea (patients with ALS; [2]): 0 N (%)
TEAE: Fall (patients with ALS; [2]): 3 (12%) N (%)
TEAE: Gastrointestinal Disorders (patients with ALS; [2]): 5 (20%) N (%)
TEAE: General Disorders and Administration Site Conditions (patients with ALS; [2]): 1 (4%) N (%)
TEAE: Injury, Poisoning and Procedural Complications (patients with ALS; [2]): 4 (16%) N (%)
TEAE: Muscle spasms (patients with ALS; [2]): 1 (4%) N (%)
TEAE: Muscular weakness (patients with ALS; [2]): 1 (4%) N (%)
TEAE: Musculoskeletal and Connective Tissue Disorders (patients with ALS; [2]): 3 (12%) N (%)
TEAE: Nausea (patients with ALS; [2]): 1 (4%) N (%)
TEAE: Post lumbar puncture syndrome (patients with ALS; [2]): 1 (4%) N (%)
TEAE: Psychiatric Disorders (patients with ALS; [2]): 2 (8%) N (%)
